The results in this text go back to patent US20260347361A1, “LRRK2 INHIBITORS AND USES THEREOF” (NEURON23, INC, priority 2022, published 2026).

In the test the target is T1, wt human LRRK2 (Homo sapiens, UniProt Q5S007).
T1 construct: wt human LRRK2, catalytic site, catalytic site (ThermoFisher/USA); purchased ThermoFisher
As to the kind of experiment: TR-FRET LanthaScreen Tb Kinase Activity Assay, inhibition of LRRK2 kinase. Format: biochemical. The note with it: 2 nM wt human LRRK2, 400 nM fluorescein-ERM (LRRKtide) peptide, 38 µM ATP, 15 min pre-incubation, 120 min at room temperature. As for the experimental part: In Table 2, activity is provided as the following: “+++”=IC50 less than 50 nM; “++”=IC50 between 50 nM and 200 nM; “+”=IC50> or =200 nM.
The compounds listed in Table 2 were tested for their inhibitory effect on LRRK2 kinase according to the following procedures.
The protocol for basic TR-FRET LanthaScreen Tb Kinase Activity Assay inhibitor studies were as follows. LanthaScreen Kinase Activity Assays (ThermoFisher/USA) to evaluate inhibitors were performed by addition of 100 nl of test compound in corresponding DMSO dilutions/5 μl of kinase/fluorescein-ERM(LRRKtide) peptide mixture, Compound & kinase were pre-incubated for 15 minutes, then 5 μl of ATP into 384 well small volume plates. After incubation for 120 minutes at room temperature, the detection reagents containing Tb-anti-pLRRKtide antibody were added to monitor phosphorylation level of peptide. Then, after 60 min minutes incubation at room temperature plates were read in Envision. Data analysis of emission ratios was according to LanthaScreen Tb Kinase Activity Assay protocol.
Kinase and assay components were adjusted to final concentrations according to the kit protocol. For LRRK2: 2 nM wt human LRRK2, catalytic site, catalytic site (ThermoFisher/USA), 400 nM peptide, 38 µM ATP in 1× Kinase Buffer A.
Basic protocol for TR-FRET LanthaScreen Tb Kinase Activity Assay inhibitor studies involved two steps:
Enzymatic step: Addition of […] of test compound in corresponding DMSO dilutions, 5 μL of kinase/substrate mixture, 5 μL of ATP into 384 well small volume plates. Incubation for 120 minutes at room temperature.
Detection step: Addition of 10 μL EDTA & antibody, read plate after 60 minutes. Data analysis of emission ratios according to KinEASE assay protocol.
Kinase and assay components were adjusted to final concentrations according to the kit protocol.

A value given as a limit tells only on which side of the number the result lay.

T1 sequence (Q5S007 970-2527 limits assumed): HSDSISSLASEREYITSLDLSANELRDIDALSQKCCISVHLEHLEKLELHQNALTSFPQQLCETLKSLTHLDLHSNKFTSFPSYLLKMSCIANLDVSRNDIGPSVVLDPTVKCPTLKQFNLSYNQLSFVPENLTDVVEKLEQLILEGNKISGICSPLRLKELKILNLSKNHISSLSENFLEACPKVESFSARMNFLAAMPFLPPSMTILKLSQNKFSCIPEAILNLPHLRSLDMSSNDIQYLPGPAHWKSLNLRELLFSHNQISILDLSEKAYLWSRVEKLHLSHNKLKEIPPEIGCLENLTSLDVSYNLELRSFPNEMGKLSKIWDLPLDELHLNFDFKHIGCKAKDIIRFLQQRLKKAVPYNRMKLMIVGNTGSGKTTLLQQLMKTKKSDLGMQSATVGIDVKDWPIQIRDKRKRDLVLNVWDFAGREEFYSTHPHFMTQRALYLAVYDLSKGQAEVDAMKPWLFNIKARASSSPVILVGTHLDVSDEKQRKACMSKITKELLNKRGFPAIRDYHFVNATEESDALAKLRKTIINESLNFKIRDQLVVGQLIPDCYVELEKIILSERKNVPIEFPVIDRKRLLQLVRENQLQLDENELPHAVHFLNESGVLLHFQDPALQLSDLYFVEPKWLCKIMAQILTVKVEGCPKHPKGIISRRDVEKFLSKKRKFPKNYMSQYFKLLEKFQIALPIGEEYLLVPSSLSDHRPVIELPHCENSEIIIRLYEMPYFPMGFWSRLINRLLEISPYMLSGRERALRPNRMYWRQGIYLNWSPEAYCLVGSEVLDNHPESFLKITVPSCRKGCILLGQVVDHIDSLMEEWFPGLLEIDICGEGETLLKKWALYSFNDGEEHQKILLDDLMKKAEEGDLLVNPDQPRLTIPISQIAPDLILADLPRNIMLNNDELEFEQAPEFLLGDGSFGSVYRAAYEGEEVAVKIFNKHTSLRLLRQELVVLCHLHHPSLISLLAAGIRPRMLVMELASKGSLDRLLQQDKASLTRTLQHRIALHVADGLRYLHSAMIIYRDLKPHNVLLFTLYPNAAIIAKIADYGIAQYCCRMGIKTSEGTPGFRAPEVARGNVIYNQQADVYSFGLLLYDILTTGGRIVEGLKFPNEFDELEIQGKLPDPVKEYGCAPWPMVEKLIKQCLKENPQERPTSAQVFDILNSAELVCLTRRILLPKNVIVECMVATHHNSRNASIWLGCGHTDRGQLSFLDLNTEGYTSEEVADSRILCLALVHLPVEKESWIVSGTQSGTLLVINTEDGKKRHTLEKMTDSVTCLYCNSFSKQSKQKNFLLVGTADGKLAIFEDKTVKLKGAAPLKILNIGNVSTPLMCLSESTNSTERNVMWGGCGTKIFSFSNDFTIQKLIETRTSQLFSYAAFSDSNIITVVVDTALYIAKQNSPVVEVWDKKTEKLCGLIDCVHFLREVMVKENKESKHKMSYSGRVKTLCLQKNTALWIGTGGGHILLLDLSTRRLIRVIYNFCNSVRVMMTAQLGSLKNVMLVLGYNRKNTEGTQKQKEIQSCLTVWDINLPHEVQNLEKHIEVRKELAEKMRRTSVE

As for `O=C(O)c1ccc2c(c1)-n1ncc(Cl)c1N=C(c1c(F)cccc1F)N2` [Methyl 3-chloro-5-(2,6-difluorophenyl)-6H-pyrazolo[1,5-a][1,3,5]benzotriazepine-9-carboxylic acid], the IC50 is more than 200 nM.

On to `Fc1cccc(F)c1C1=Nc2c(F)cnn2-c2cc(N3CCOCC3)ncc2N1` [4-(5-(2,6-difluorophenyl)-3-fluoro-6H-pyrazolo[1,5-a]pyrido[3,4-f][1,3,5]triazepin-9-yl)morpholine], for which the IC50 is less than 50 nM.

With `O=C(NC1CCC1)c1ccc2c(c1)-n1ncc(Cl)c1N=C(c1c(F)cccc1F)N2` [3-chloro-N-cyclobutyl-5-(2,6-difluorophenyl)-6H-pyrazolo[1,5-a][1,3,5]benzotriazepine-9-carboxamide], the IC50 was less than 50 nM.

In the case of `C[C@@H]1COCCN1c1ccc2c(c1)-n1ncc(Cl)c1N=C(c1c(F)cccc1F)N2` [(3R)-4-[3-chloro-5-(2,6-difluorophenyl)-6H-pyrazolo[1,5-a][1,3,5]benzotriazepin-9-yl]-3-methyl-morpholine], the IC50 is less than 50 nM.

The compound `O=C(NCCO)c1ccc2c(c1)-n1ncc(Cl)c1N=C(c1c(F)cccc1F)N2` [3-chloro-5-(2,6-difluorophenyl)-N-(2-hydroxyethyl)-6H-pyrazolo[1,5-a][1,3,5]benzotriazepine-9-carboxamide] registered an IC50 of less than 50 nM.

The compound `Fc1cccc(F)c1C1=Nc2c(Cl)cnn2-c2cc(N3CCC(F)(F)C3)ccc2N1` [3-chloro-5-(2,6-difluorophenyl)-9-(3,3-difluoropyrrolidin-1-yl)-6H-pyrazolo[1,5-a][1,3,5]benzotriazepine] had an IC50 of less than 50 nM.

In turn, `CC(C)(C)NC(=O)c1ccc2c(c1)-n1ncc(Cl)c1N=C(c1c(F)cccc1F)N2` [N-(tert-butyl)-3-chloro-5-(2,6-difluorophenyl)-6H-benzo[f]pyrazolo[1,5-a][1,3,5]triazepine-9-carboxamide] came in with a 50% inhibitory concentration (IC50) of less than 50 nM.

`C[C@H]1CN(c2cc3c(cn2)NC(c2c(F)cccc2F)=Nc2ccnn2-3)CCO1` [(S)-4-(5-(2,6-difluorophenyl)-6H-pyrazolo[1,5-a]pyrido[3,4-f][1,3,5]triazepin-9-yl)-2-methylmorpholine] registered an IC50 of less than 50 nM.

`Fc1cccc(F)c1C1=Nc2c(Cl)cnn2-c2cc(N3CC[C@H](F)C3)ccc2N1` [3-chloro-5-(2,6-difluorophenyl)-9-[(3S)-3-fluoropyrrolidin-1-yl]-6H-pyrazolo[1,5-a][1,3,5]benzotriazepine] returned an IC50 of less than 50 nM.

The compound `Fc1cccc(F)c1C1=Nc2ccnn2-c2cc(N3CCOCC3)ccc2N1` [4-[5-(2,6-difluorophenyl)-6H-pyrazolo[1,5-a][1,3,5]benzotriazepin-9-yl]morpholine] returned an IC50 of less than 50 nM.

`NC(=O)c1ccc2c(c1)-n1ncc(Cl)c1N=C(c1c(F)cccc1F)N2` [3-chloro-5-(2,6-difluorophenyl)-6H-pyrazolo[1,5-a][1,3,5]benzotriazepine-9-carboxamide] displayed an IC50 of less than 50 nM.

Compound `Cn1cc(-c2ccc3c(c2)-n2ncc(Cl)c2N=C(c2c(F)cccc2F)N3)cn1` [3-chloro-5-(2,6-difluorophenyl)-9-(1-methylpyrazol-4-yl)-6H-pyrazolo[1,5-a][1,3,5]benzotriazepine] gave a half-maximal inhibitory concentration (IC50) of less than 50 nM.

Take `Fc1cccc(F)c1C1=Nc2c(Cl)cnn2-c2cc(N3CCCOCC3)ccc2N1` [4-[3-chloro-5-(2,6-difluorophenyl)-6H-pyrazolo[1,5-a][1,3,5]benzotriazepin-9-yl]-1,4-oxazepane]: the IC50 is less than 50 nM.

Regarding `Fc1cccc(F)c1C1=Nc2c(Cl)cnn2-c2cc(N3C4CCC3COC4)ccc2N1` [8-[3-chloro-5-(2,6-difluorophenyl)-6H-pyrazolo [1,5-a][1,3, 5]benzotriazepin-9-yl]-3-oxa-8-azabicyclo [3.2.1]octane], the IC50 was less than 50 nM.

For the compound `O=C(NCC1CC1)c1ccc2c(c1)-n1ncc(Cl)c1N=C(c1c(F)cccc1F)N2` [3-chloro-N-(cyclopropylmethyl)-5-(2,6-difluorophenyl)-6H-pyrazolo[1,5-a][1,3,5]benzotriazepine-9-carboxamide], the IC50 was less than 50 nM.

Compound `C[C@@H]1CN(c2ccc3c(c2)-n2ncc(Cl)c2N=C(c2c(F)cccc2F)N3)C[C@@H](C)O1` [(2R,6R)-4-(3-chloro-5-(2,6-difluorophenyl)-6H-benzo[f]pyrazolo[1,5-a][1,3,5]triazepin-9-yl)-2,6-dimethylmorpholine] returned a concentration for half-maximal inhibition (IC50) of less than 50 nM.

Take `Fc1cccc(F)c1C1=Nc2c(Cl)cnn2-c2cc(N3CCNC4(CC4)C3)ccc2N1` [3-chloro-9-(4,7-diazaspiro[2.5]octan-7-yl)-5-(2,6-difluorophenyl)-6H-pyrazolo[1,5-a][1,3,5]benzotriazepine]: the IC50 is less than 50 nM.

Turning to `Fc1cccc(F)c1C1=Nc2c(Cl)cnn2-c2cc(N3CCOCC3)ccc2N1` [4-[3-chloro-5-(2,6-difluorophenyl)-6H-pyrazolo[1,5-a][1,3,5]benzotriazepin-9-yl]morpholine], the IC50 was less than 50 nM.

Turning to `CNC(=O)c1ccc2c(c1)-n1ncc(Cl)c1N=C(c1c(F)cccc1F)N2` [3-chloro-5-(2,6-difluorophenyl)-N-methyl-6H-pyrazolo[1,5-a][1,3,5]benzotriazepine-9-carboxamide], the IC50 was less than 50 nM.

`Fc1cccc(Cl)c1C1=Nc2c(Cl)cnn2-c2cc(N3CCOCC3)ccc2N1` [4-[3-chloro-5-(2-chloro-6-fluoro-phenyl)-6H-pyrazolo[1,5-a][1,3,5]benzotriazepin-9-yl]morpholine] registered an IC50 of less than 50 nM.

Compound `Fc1cccc(F)c1C1=Nc2ccnn2-c2cc(N3CCOCC3)ncc2N1` [4-(5-(2,6-difluorophenyl)-6H-pyrazolo[1,5-a]pyrido[3,4-f][1,3,5]triazepin-9-yl)morpholine] displayed an IC50 of less than 50 nM.

For the compound `Fc1cccc(F)c1C1=Nc2c(Cl)cnn2-c2cc(N3C[C@H]4C[C@@H]3CO4)ccc2N1` [(1R,4R)-5-[3-chloro-5-(2,6-difluorophenyl)-6H-pyrazolo[1,5-a][1,3,5]benzotriazepin-9-yl]-2-oxa-5-azabicyclo[2.2.1]heptane], the IC50 was less than 50 nM.

`N#Cc1cnn2c1N=C(c1c(F)cccc1F)Nc1cnc(N3CCOCC3)cc1-2` [5-(2,6-difluorophenyl)-9-morpholino-6H-pyrazolo[1,5-a]pyrido[3,4-f][1,3,5]triazepine-3-carbonitrile] gave an IC50 of less than 50 nM.

As for `O=C(NC1CCCC1)c1ccc2c(c1)-n1ncc(Cl)c1N=C(c1c(F)cccc1F)N2` [3-chloro-N-cyclopentyl-5-(2,6-difluorophenyl)-6H-pyrazolo[1,5-a][1,3,5]benzotriazepine-9-carboxamide], the IC50 is less than 50 nM.

`CC(C)NC(=O)c1ccc2c(c1)-n1ncc(Cl)c1N=C(c1c(F)cccc1F)N2` [3-chloro-5-(2,6-difluorophenyl)-N-isopropyl-6H-pyrazolo[1,5-a][1,3,5]benzotriazepine-9-carboxamide] had an IC50 of less than 50 nM.

`Fc1cccc(F)c1C1=Nc2c(Cl)cnn2-c2cc(-c3cn[nH]c3)ccc2N1` displayed a half-inhibitory concentration (IC50) of less than 50 nM.

In the case of `Fc1cccc(F)c1C1=Nc2c(Cl)cnn2-c2cc(N3CCC34COC4)ccc2N1` [1-[3-chloro-5-(2,6-difluorophenyl)-6H-pyrazolo[1,5-a][1,3,5]benzotriazepin-9-yl]-6-oxa-1-azaspiro[3.3]heptane], the IC50 is less than 50 nM.

Turning to `Fc1cccc(F)c1C1=Nc2c(Cl)cnn2-c2cc(N3C[C@H]4CC[C@@H](C3)O4)ccc2N1` [(1R,5S)-3-[3-chloro-5-(2,6-difluorophenyl)-6H-pyrazolo[1,5-a][1,3,5]benzotriazepin-9-yl]-8-oxa-3-azabicyclo[3.2.1]octane], the IC50 was less than 50 nM.

In turn, `C[C@H]1CN(c2ccc3c(c2)-n2ncc(Cl)c2N=C(c2c(F)cccc2F)N3)C[C@H](C)O1` [(2S,6S)-4-(3-chloro-5-(2,6-difluorophenyl)-6H-benzo[f]pyrazolo[1,5-a][1,3,5]triazepin-9-yl)-2,6-dimethylmorpholine] gave a 50% inhibitory concentration (IC50) of less than 50 nM.

As for `O=C(NCCF)c1cnc2c(c1)-n1ncc(Cl)c1N=C(c1c(F)cccc1F)N2` [5-chloro-8-(2,6-difluorophenyl)-N-(2-fluoroethyl)-2,3,7,9,11-pentazatricyclo[8.4.0.02,6]tetradeca-1(10),3,5,7,11,13-hexaene-13-carboxamide], the concentration for half-maximal inhibition (IC50) was less than 50 nM.

For `O=C(NCCF)c1ccc2c(c1)-n1ncc(Cl)c1N=C(c1c(F)cccc1F)N2` [3-chloro-5-(2,6-difluorophenyl)-N-(2-fluoroethyl)-6H-pyrazolo[1,5-a][1,3,5]benzotriazepine-9-carboxamide], the IC50 was less than 50 nM.

`Fc1cccc(F)c1C1=Nc2c(Cl)cnn2-c2cc(Br)ccc2N1` [9-bromo-3-chloro-5-(2,6-difluorophenyl)-6H-pyrazolo[1,5-a][1,3,5]benzotriazepine] yielded an IC50 of less than 50 nM.
